Reference: PubChem BioAssay (NCI)
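In this assay, cells in 96-well plates receive the compound at five concentrations for 48 hours. Endpoints are linearly interpolated between the surrounding concentrations. TGI: concentration producing complete growth inhibition.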

What was measured:
Test in all cases: growth of human tumour cells (NCI), 48 h
[1] = test system: CCRF-CEM leukemia
[2] = test system: 786-0 renal
[3] = test system: OVCAR-3 ovarian
[4] = test system: MALME-3M melanoma
[5] = test system: NCI-H460 lung
[6] = test system: MOLT-4 leukemia
[7] = test system: SF-268 CNS
[8] = test system: NCI-H226 lung
[9] = test system: M14 melanoma
[10] = test system: ACHN renal
[11] = test system: HL-60(TB) leukemia
[12] = test system: OVCAR-5 ovarian
[13] = test system: SF-295 CNS
[14] = test system: SN12C renal
[15] = test system: RXF 393 renal
[16] = test system: HOP-62 NSCLC
[17] = test system: SK-MEL-5 melanoma
[18] = test system: K-562 leukemia
[19] = test system: DU-145 prostate
[20] = test system: HOP-92 NSCLC

Row | SMILES | TGI [1] | TGI [2] | TGI [3] | TGI [4] | TGI [5] | TGI [6] | TGI [7] | TGI [8] | TGI [9] | TGI [10] | TGI [11] | TGI [12] | TGI [13] | TGI [14] | TGI [15] | TGI [16] | TGI [17] | TGI [18] | TGI [19] | TGI [20]
1 | COc1cc(C2C(Cl)C(=O)N2NC(=O)Cc2ccccc2)ccc1O (configuration not stated) | > 100 µM | > 100 µM | > 100 µM | > 100 µM | > 100 µM | > 100 µM | > 100 µM | > 100 µM | > 100 µM | > 100 µM | 80.7 µM | > 100 µM | > 100 µM | > 100 µM | > 100 µM | > 100 µM | > 100 µM | > 100 µM | – | –
2 | O=C(Nc1ccc(F)cc1)c1cc2ccc(O)cc2oc1=Nc1ccccc1F | > 100 µM | > 100 µM | > 100 µM | > 100 µM | > 100 µM | > 100 µM | > 100 µM | – | – | > 100 µM | 69.5 µM | > 100 µM | > 100 µM | > 100 µM | – | > 100 µM | 35.2 µM | > 100 µM | > 100 µM | –
3 | COCC12CC(CC1=O)C1C2ON2c3ccccc3C(=O)C12c1ccccc1 (configuration not stated) | > 100 µM | > 100 µM | – | > 100 µM | – | > 100 µM | > 100 µM | > 100 µM | > 100 µM | > 100 µM | > 100 µM | – | > 100 µM | > 100 µM | > 100 µM | > 100 µM | > 100 µM | > 100 µM | – | > 100 µM
4 | CC(C)(C)C(=O)[CH-]C(=O)C(F)(F)C(F)(F)C(F)(F)F.CC(C)(C)C(=O)[CH-]C(=O)C(F)(F)C(F)(F)C(F)(F)F.[O-]CC1OC(O)C(O)C(O)C1O.[O-]CC1OC(O)C(O)C(O)C1O.[Ti+4] | > 100 µM | > 100 µM | > 100 µM | > 100 µM | > 100 µM | > 100 µM | > 100 µM | > 100 µM | > 100 µM | > 100 µM | > 100 µM | > 100 µM | > 100 µM | > 100 µM | > 100 µM | > 100 µM | > 100 µM | > 100 µM | – | 96.9 µM
5 | CCOC(=O)C1CC/C(=C(/C#N)C(=O)OC)N1 (configuration not stated) | > 100 µM | > 100 µM | > 100 µM | – | > 100 µM | > 100 µM | > 100 µM | – | > 100 µM | > 100 µM | > 100 µM | – | > 100 µM | > 100 µM | > 100 µM | > 100 µM | > 100 µM | > 100 µM | – | > 100 µM
6 | O=C(O)Cc1ccc2c(c1O)C(=O)c1c(ccc(CC(=O)O)c1O)C2=O | > 100 µM | > 100 µM | > 100 µM | > 100 µM | > 100 µM | > 100 µM | > 100 µM | > 100 µM | > 100 µM | > 100 µM | > 100 µM | > 100 µM | > 100 µM | > 100 µM | – | > 100 µM | > 100 µM | > 100 µM | – | > 100 µM
7 | O=S(Cc1cc2c(cc1Br)OCO2)c1ccccc1 (configuration not stated) | 76.3 µM | > 100 µM | > 100 µM | > 100 µM | > 100 µM | > 100 µM | > 100 µM | > 100 µM | > 100 µM | > 100 µM | 57.4 µM | > 100 µM | > 100 µM | > 100 µM | > 100 µM | > 100 µM | > 100 µM | > 100 µM | – | > 100 µM
8 | O=C1C=C(Nc2ccccc2C(=O)CC(=O)C(=O)Nc2ccc(Cl)c(Cl)c2)c2ccccc2C1=O | > 100 µM | > 100 µM | > 100 µM | 29.8 µM | > 100 µM | > 100 µM | > 100 µM | > 100 µM | > 100 µM | > 100 µM | – | > 100 µM | > 100 µM | > 100 µM | > 100 µM | > 100 µM | 20.4 µM | > 100 µM | – | > 100 µM
9 | CCOC(=O)c1cn2c([nH]c3ccccc32)c(C#N)c1=O | > 100 µM | > 100 µM | > 100 µM | > 100 µM | > 100 µM | > 100 µM | > 100 µM | > 100 µM | > 100 µM | > 100 µM | 47.1 µM | > 100 µM | > 100 µM | > 100 µM | > 100 µM | > 100 µM | > 100 µM | > 100 µM | – | > 100 µM
10 | O=C1C2Nc3ccccc3SC2C(=O)N1c1cccc([N+](=O)[O-])c1 (configuration not stated) | > 100 µM | > 100 µM | > 100 µM | > 100 µM | > 100 µM | > 100 µM | > 100 µM | > 100 µM | > 100 µM | > 100 µM | > 100 µM | > 100 µM | > 100 µM | > 100 µM | > 100 µM | > 100 µM | > 100 µM | > 100 µM | – | > 100 µM
11 | Cc1nc(N)sc1C(=O)/C=C/c1ccc([N+](=O)[O-])cc1 | > 100 µM | > 100 µM | > 100 µM | > 100 µM | > 100 µM | > 100 µM | > 100 µM | – | – | – | > 100 µM | > 100 µM | > 100 µM | > 100 µM | > 100 µM | > 100 µM | > 100 µM | > 100 µM | – | > 100 µM
12 | CCCCCn1cnc2c1S(=O)(=O)N(C)C(NC(=O)c1ccccc1)=N2 | > 100 µM | > 100 µM | > 100 µM | – | > 100 µM | > 100 µM | > 100 µM | > 100 µM | – | > 100 µM | > 100 µM | – | > 100 µM | > 100 µM | – | > 100 µM | > 100 µM | > 100 µM | – | > 100 µM
13 | Cc1cc(=O)[nH]c(CNC(=O)Cc2ccccc2)n1 | > 100 µM | > 100 µM | > 100 µM | > 100 µM | > 100 µM | > 100 µM | > 100 µM | > 100 µM | > 100 µM | > 100 µM | > 100 µM | > 100 µM | > 100 µM | > 100 µM | > 100 µM | > 100 µM | – | > 100 µM | – | > 100 µM
